As a reminder, the IC50 is the midpoint of a concentration-inhibition curve.

The target of assay [1] is T1, human PTHR, G protein-coupled conformation (RG) (Homo sapiens, UniProt Q03431).
T1 construct: expressed in transfected cells; host or cells: COS-7, transient (Fugene-6); membranes
T1 sequence (Q03431 27-593): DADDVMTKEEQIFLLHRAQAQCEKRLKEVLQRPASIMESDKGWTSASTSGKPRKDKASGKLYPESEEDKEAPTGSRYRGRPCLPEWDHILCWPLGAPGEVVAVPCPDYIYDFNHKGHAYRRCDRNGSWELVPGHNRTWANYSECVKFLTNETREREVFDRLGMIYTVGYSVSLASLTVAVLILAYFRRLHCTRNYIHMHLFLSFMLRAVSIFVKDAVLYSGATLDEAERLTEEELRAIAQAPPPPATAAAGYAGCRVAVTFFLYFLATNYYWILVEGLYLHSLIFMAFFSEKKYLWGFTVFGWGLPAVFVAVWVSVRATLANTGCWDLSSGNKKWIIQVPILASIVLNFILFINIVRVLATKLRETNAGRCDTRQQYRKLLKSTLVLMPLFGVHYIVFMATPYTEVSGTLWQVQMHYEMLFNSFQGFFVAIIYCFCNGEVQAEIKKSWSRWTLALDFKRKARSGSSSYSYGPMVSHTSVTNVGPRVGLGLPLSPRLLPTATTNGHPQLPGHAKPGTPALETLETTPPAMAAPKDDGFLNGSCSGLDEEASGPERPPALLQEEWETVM
The assay is described as follows: Competition binding to RG conformation of hPTHR (COS-7 membranes, GαsND, 125I-[Aib1,3,M]PTH(1-15) tracer). Particulars: Table 5; read-out: IC50 RG, ^125I-PTH(1-15) + GsND.

Another assay concerns the target T2, hPTHR (Homo sapiens, UniProt Q03431).
T2 sequence (Q03431 27-593): T1 sequence (Q03431 27-593)
Briefly: Delayed cAMP response after ligand wash-out in HKRK-B64 cells. It is filed as cell-based. Also on record: expressed in transfected cells. The conditions noted are these: HKRK-B64, at two hours (so in the source); read-out: cAMP response after wash-out, % of maximum response.

For assay [2], the system named is PTHR-CFPIC3/YFPCT (PTHR-cam). Briefly: FRET analysis of ligand binding/receptor activation in HEK-293 cells. It is filed as cell-based, human.
Source text: HEK-293 cells stably transfected with a PTHR construct (PTHR-cam) containing cyan fluorescent protein (CFP) in the third intracellular loop and yellow fluorescent protein (YFP) in the carboxy-terminal tail, were used to assess the kinetics of ligand binding to, and dissociation from the PTHR. With PTHR-cam, excitation of the CFP with ultraviolet light (λexc=436 nm) produces an intramolecular FRET to the YFP, which is observable as an increase in light emission from YFP (λemm=535 nm) and a decrease in light emission from CFP λemm=480 nm). This FRET signal occurs in the ground-state receptor and decreases upon agonist binding. […] Data are from a single experiment, and identical results were obtained in at least three others.
The approach used exploits an intramolecular FRET signal that occurs in a human PTHR construct, PTHR-CFPIC3/YFPCT (formerly called PTHR-cam). This construct contains cyan-fluorescent protein (CFP) in the third intracellular loop and yellow-fluorescent protein (YFP) in the carboxy-terminal tail. A FRET signal is produced by PTHR-CFPIC3/YFPCT in the basal state, and this signal diminishes upon agonist binding, likely due to conformational change that occurs upon activation.
HEK-293 cells stably expressing HEK-PTHR-CFPIC3/YFPCT (previously called HEK-PTHR-Cam cells (Vilardaga et al., Nat. Biotechnol. 21:807-812 (2003)) were grown on glass coverslips and processed for FRET analysis as described. With these cells, excitation of the CFP (donor) in PTHR-CFPIC3/YFPCT with ultraviolet light (λmax.ex.=436 nm; λmax.em.=480 nm) produces an intramolecular FRET to the YFP (acceptor), resulting in emission from that YFP (λmax.ex.=480 nm, λmax.em.=535 nm). This FRET response is observable as a decrease in intensity of CFP light emission at 480 nm, and an increase in intensity of YFP light emission at 535 nm. The FRET signal is produced by PTHR-CFPIC3/YFPCT in the ground-state receptor and decreases upon binding of an agonist. […] Fluorescence was monitored using a Zeiss inverted microscope equipped with a 100× objective and a dual emission photometric system (Til Photonics), coupled to an avalanche photodiode detection system and an analog-digital converter (Axon Instruments). The FRET signal detected upon excitation at 436 nm was calculated as the normalized FRET ratio: FYFP(535 nm)/FCFP(480 nm) where FYFP(535 nm) is the emission at 535 nm, corrected for spillover of the CFP signal into the YFP channel, and FCFP(480 nm) is the emission at 480 nm, corrected for spillover (minimal) of the YFP emission into the CFP channel. Changes in fluorescence emissions due to photo-bleaching were subtracted.
Assay [3] has as its target T3, human PTHR, G protein-uncoupled conformation (R^0) (Homo sapiens, UniProt Q03431).
T3 construct: expressed in transfected cells; host or cells: COS-7, transient (Fugene-6)
T3 sequence (Q03431 27-593): T1 sequence (Q03431 27-593)
The assay is described as follows: Competition binding to R0 conformation of hPTHR (COS-7 membranes, GTPγS, 125I-PTH(1-34) tracer). The method in brief: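 Membranes from hPTHR-transfected COS-7 cells (20-100 μg/mL protein) incubated 90 min with radioligand (~150,000 cpm/ml) and unlabeled ligands, then filtered. Specific binding expressed as % of binding without competitor.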

Assay [4] has as its target T4, ROS 17/2.8 cells (endogenous rat PTHR) (Rattus norvegicus, UniProt P25961).
T4 construct: the rat osteoblastic cell line ROS17/2.8, which endogenously expresses the rat PTHR; endogenous in cells; host or cells: ROS 17/2.8 rat osteosarcoma cells (membranes or intact cells)
T4 sequence (P25961 27-591): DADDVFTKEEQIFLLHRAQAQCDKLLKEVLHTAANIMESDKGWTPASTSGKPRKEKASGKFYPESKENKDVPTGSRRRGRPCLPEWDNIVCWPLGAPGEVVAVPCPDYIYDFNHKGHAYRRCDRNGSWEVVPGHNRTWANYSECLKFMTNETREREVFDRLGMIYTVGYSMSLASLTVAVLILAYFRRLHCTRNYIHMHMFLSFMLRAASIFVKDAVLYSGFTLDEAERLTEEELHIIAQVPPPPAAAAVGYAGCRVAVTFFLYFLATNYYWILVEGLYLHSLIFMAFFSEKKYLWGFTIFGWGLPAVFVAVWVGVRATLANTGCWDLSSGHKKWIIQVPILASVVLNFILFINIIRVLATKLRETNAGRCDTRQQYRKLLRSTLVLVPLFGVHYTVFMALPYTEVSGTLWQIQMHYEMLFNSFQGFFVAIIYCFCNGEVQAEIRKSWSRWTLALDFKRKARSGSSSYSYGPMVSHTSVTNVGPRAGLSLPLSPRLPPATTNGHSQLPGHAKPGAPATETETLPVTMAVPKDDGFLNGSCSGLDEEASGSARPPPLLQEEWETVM
The assay is described as follows: Acute cAMP response in ROS 17/2.8 rat osteoblastic cells. It is filed as cell-based. Particulars: 10^−7 M, hPTH(1-28) 10^−6 M, basal 3.7±0.4.

Assay [5] is described as follows: Plasma cAMP in mice after subcutaneous injection. It is filed as in vivo. How it is done:
FIGS. 9A-9D are graphs showing in vivo plasma cAMP levels in mice treated with PTH analogs. Wild-type mice were injected subcutaneously with vehicle (0.9% NaCl/0.05% Tween-20), or vehicle containing a PTH peptide at a dose-level of 10 to 1,000 nmol of peptide per kg of body weight, and at indicated times after injection, blood was withdrawn from the tail vein, and the amount of cAMP in the resulting plasma was quantified by radioimmuno assay. Each curve corresponds to a peptide at a defined concentration, as indicated in the graph keys. The plasma cAMP concentrations are plotted as picomole per μl plasma.
Wild-type mice were injected subcutaneously with vehicle (0.9% NaCl/0.05% Tween-20), or vehicle containing a PTH peptide so as to achieve a concentration ranging from 10 to 1000 nmol/kg of body weight. At the indicated times after injection, blood was withdrawn from the tail vein, and the amount of cAMP in the resulting plasma was quantified by radioimmuno assay (FIGS. 9A-9D).
Wild-type mice were injected subcutaneously with vehicle (0.9% NaCl/0.05% Tween-20), or vehicle containing a PTH peptide at a dose level of 10 to 1000 nmol/kg of body weight. At indicated times after injection, blood was withdrawn from the tail vein, and the amount of cAMP in the resulting plasma was quantified by radioimmuno assay. Ionized calcium in serum was measured as above and phosphate was measured by a U.V. spectroscopic kit assay.

A short description of assay [6]: Calcemic action in normal rats (blood ionized calcium). The conditions noted are these: normal rats, i.v. It is filed as in vivo. How it is done:
Binding to the rat PTHR was also measured in vitro.
Concentration of peptides in stock solution were adjusted by dilution with 25 mmol/L phosphate-citrate buffer/100 mmol/L NaCl/0.05% Tween 80 (pH. 5.0) (PC-buffer). All peptides were allowed to stand on ice immediately before administration.
Female SD-IGS rat at 8 weeks of age (Charles River Japan, Inc.) were measured for their body weight. Blood was collected by tail vein into heparinized capillary tubes and measured for baseline levels of blood ionized calcium and pH using Ca^++/pH analyzer (Model 634/Bayer Medical Ltd.) to give the corrected level of ionized calcium at pH 7.4 for each sample. Rats received intravenous administration of each peptides at a dose of 1 ml/kg. Peptides were administered to groups of 6 rats each respectively. At 1, 2, 4, or 6 hours after administration, blood was collected by tail vein to monitor the time course of corrected blood ionized calcium levels. The time course of changes in corrected ionized calcium levels, compared to vehicle, and are expressed as means+/−standard error.

Assay [7] deals with T4, ROS 17/2.8 cells (endogenous rat PTHR). The assay is described as follows: Delayed cAMP response in ROS 17/2.8 cells. It is filed as cell-based. As for the experimental part: The analogs used were [E^19],Mc-hPTH(1-34)OH (SEQ ID NO:21) and [A^23,E^19],Mc-hPTH(1-34)OH (SEQ ID NO:28) (Mc=Ala^1,3,12,Gln^10,Arg^11,Trp^14, Arg^19).
The data in FIG. 21B are expressed as a percent of the maximum response observed for each ligand, determined by incubating the cells with ligand in the presence of IBMX for 10 minutes (no ligand wash-out). These values were 67±6; 68±3; and 71±1 pmole/well, respectively. The basal (vehicle) cAMP value was 3.7±0.4 pmole/well.
Following treatment of cells with a ligand, the intracellular cAMP levels were measured by radioimmuno assay, as described (Shimizu et al., J. Biol. Chem. 276:49003-49012 (2001)). The capacities of ligands to produce a delayed cAMP response in cells after a brief exposure to the ligand was assessed as follows. […]

Square brackets hold non-standard residues; d marks the D form. Peptide text beside a SMILES is read from it. hArg = N=C(N)NCCCC[C@H](N)C(=O)O; Nle = CCCC[C@H](N)C(=O)O; Aib = CC(C)(N)C(=O)O

With `CCCC[C@H](NC(=O)[C@H](CC(C)C)NC(=O)[C@H](CCC(N)=O)NC(=O)[C@@H](NC(=O)[C@H](CCC(=O)O)NC(=O)C(C)(C)NC(=O)[C@@H](NC(=O)C(C)(C)N)C(C)C)[C@@H](C)CC)C(=O)N[C@@H](Cc1c[nH]cn1)C(=O)N[C@@H](CCC(N)=O)C(=O)N[C@@H](CCCCNC(=N)N)C(=O)N[C@@H](C)C(=O)N[C@@H](CCCCN)C(=O)N[C@@H](Cc1c[nH]c2ccccc12)C(=O)N[C@@H](Cc1ccc(O)cc1)C(N)=O` [[Aib^1,3,M]rPTH(1-15)NH2, [Aib^1,3,Nle^8,Gln^10,homoarginine^11,Ala^12,Trp^14,Tyr^15]rPTH(1-15)NH2, reference compound] (H-[Aib]V[Aib]EIQL[Nle]HQ[hArg]AKWY-NH2; N-terminus assumed), the IC50 in assay [1] turned out to be 0.74 ± 0.18 nM. For the same compound, on hPTHR, the Emax stood at 23%. For the same compound, in assay [2], the “FRET signal after exchange to ligand-free buffer, in words” value was “began to decay immediately upon exchange of the buffer to a ligand-free one”. In addition, in assay [3] (Table 5, fold weaker affinity for R0 than RG), the “R0:RG” value is listed as 1,397.

With `CC[C@H](C)[C@H](NC(=O)[C@H](CCC(=O)O)NC(=O)[C@H](CO)NC(=O)[C@@H](NC(=O)[C@@H](N)CO)C(C)C)C(=O)N[C@@H](CCC(N)=O)C(=O)N[C@@H](CC(C)C)C(=O)N[C@@H](CCSC)C(=O)N[C@@H](Cc1c[nH]cn1)C(=O)N[C@@H](CC(N)=O)C(=O)N[C@@H](CC(C)C)C(=O)NCC(=O)N[C@@H](CCCCN)C(=O)N[C@@H](Cc1c[nH]cn1)C(=O)N[C@@H](CC(C)C)C(=O)N[C@@H](CC(N)=O)C(=O)N[C@@H](CO)C(=O)N[C@@H](CCSC)C(=O)N[C@@H](CCC(=O)O)C(=O)N[C@@H](CCCNC(=N)N)C(=O)N[C@H](C(=O)N[C@@H](CCC(=O)O)C(=O)N[C@@H](Cc1c[nH]c2ccccc12)C(=O)N[C@@H](CC(C)C)C(=O)N[C@@H](CCCNC(=N)N)C(=O)N[C@@H](CCCCN)C(=O)N[C@@H](CCCCN)C(=O)N[C@@H](CC(C)C)C(N)=O)C(C)C` [hPTH(1-28)NH2] (H-SVSEIQLMHNLGKHLNSMERVEWLRKKL-NH2; N-terminus assumed), the “maximum cAMP response (ligand with IBMX 10 minutes, no wash-out)” value in assay [4] turned out to be 68±3 pmole/well. Moreover, the “dose producing comparable increase in plasma cAMP” value in assay [5] is 1,000 nmol/kg.

Regarding `CC[C@H](C)[C@H](NC(=O)[C@H](CCC(=O)O)NC(=O)[C@H](CO)NC(=O)[C@@H](NC(=O)[C@@H](N)CO)C(C)C)C(=O)N[C@@H](CCC(N)=O)C(=O)N[C@@H](CC(C)C)C(=O)N[C@@H](CCSC)C(=O)N[C@@H](Cc1c[nH]cn1)C(=O)N[C@@H](CC(N)=O)C(=O)N[C@@H](CC(C)C)C(=O)NCC(=O)N[C@@H](CCCCN)C(=O)N[C@@H](Cc1c[nH]cn1)C(=O)N[C@@H](CC(C)C)C(=O)N[C@@H](CC(N)=O)C(=O)N[C@@H](CO)C(=O)N[C@@H](CCSC)C(=O)N[C@@H](CCC(=O)O)C(=O)N[C@@H](CCCNC(=N)N)C(=O)N[C@H](C(=O)N[C@@H](CCC(=O)O)C(=O)N[C@@H](Cc1c[nH]c2ccccc12)C(=O)N[C@@H](CC(C)C)C(=O)N[C@@H](CCCNC(=N)N)C(=O)N[C@@H](CCCCN)C(=O)N[C@@H](CCCCN)C(=O)N[C@@H](CC(C)C)C(=O)N[C@@H](CCC(N)=O)C(=O)N[C@@H](CC(=O)O)C(=O)N[C@H](C(=O)N[C@@H](Cc1c[nH]cn1)C(=O)N[C@@H](CC(N)=O)C(=O)N[C@@H](Cc1ccccc1)C(N)=O)C(C)C)C(C)C` [hPTH(1-34)NH2], the “maximum cAMP response (ligand with IBMX 10 minutes, no wash-out)” value in assay [4] turned out to be 67±6 pmole/well. Further, in assay [5], the “dose producing comparable increase in plasma cAMP” value is 50 nmol/kg.

For “AVAEIQLMHQRAKWLNSMERVEALRKKLQDVHNF [[A^23,E^19],Mc-hPTH(1-34)OH]”, the “calcemic action (blood ionized calcium), in words” value in assay [6] is listed as “reduced the hypercalcemic effect”. The “fold reduction of binding affinity for R^0 by Trp^23→Ala substitution” value in assay [3] (versus [E^19,Mc]PTH(1-34)) worked out at 10 fold. Also, the “duration of cAMP signaling, in words” value in assay [7] was “reduced duration of cAMP signaling in cells”.

The record behind these values is patent US9057727B2, “Screening methods using G-protein coupled receptors and related compositions” (The General Hospital Corporation, priority 2007, dated 2015).
